# According to ChEMBL document CHEMBL5365552, “Tryptamines and Mental Health: Activating the 5-HT Receptor for Therapeutic Potential” (ACS Med Chem Lett, 2023):
# Legend:
# Type in all cases: ADME, organism-based
# [1] = Prodrug conversion in rat assessed as 4-OH-DiPT formation by measuring Cmax at 2 mg/kg, iv measured for 15 to 360 mins by LCMS analysis; design: time upper 360 min, dose 2 mg/kg, time lower 15 min, route iv; conditions: in vivo
# [2] = Prodrug conversion in rat assessed as 4-OH-DiPT formation by measuring Cmax at 2 mg/kg, sc measured for 15 to 360 mins by LCMS analysis; design: time upper 360 min, time lower 15 min, dose 2 mg/kg, route sc; conditions: in vivo
# [3] = Prodrug conversion in rat assessed as 4-OH-DiPT formation by measuring Tmax at 2 mg/kg, sc measured for 15 to 360 mins by LCMS analysis; conditions: in vivo, time 15-360 min
# [4] = Prodrug conversion in rat assessed as 4-OH-DiPT formation by measuring AUC at 2 mg/kg, iv measured for 15 to 360 mins by LCMS analysis; design: dose 2 mg/kg, time 15-360 min, route iv; conditions: in vivo
# [5] = Prodrug conversion in rat assessed as 4-OH-DiPT formation by measuring AUC at 2 mg/kg, sc measured for 15 to 360 mins by LCMS analysis; design: dose 2 mg/kg, time upper 360 min, time lower 15 min, route sc; conditions: in vivo
# [6] = Prodrug conversion in rat assessed as 4-OH-DiPT formation by measuring bioavailability at 2 mg/kg, sc measured for 15 to 360 mins by LCMS analysis; conditions: in vivo, time 15-360 min
smiles,measurement,setting,value
CC(C)N(CCc1c[nH]c2cccc(OC(=O)CCCC(=O)O)c12)C(C)C,Cmax,[1],458 ng/mL
same,Cmax,[2],103 ng/mL
same,Tmax,[3],36.6 min
same,AUC,[4],152 ng·h/mL
same,AUC,[5],134 ng·h/mL
same,F,[6],89%
